This is an account of results in patent US9045468B2, “2,5-methano- and 2,5-ethano-tetrahydrobenzazepine derivatives and use thereof to block reuptake of norepinephrine, dopamine, and serotonin” (Albany Molecular Research, Inc., priority 2010, dated 2015).

Structures are written as SMILES.

The target in experiment [1] is hSERT (Homo sapiens (Human), UniProt P31645). As to the kind of experiment: SERT radioligand binding assay ([125I]RTI-55, HEK-293 membranes). The conditions noted are these: recombinant HEK-293 membranes, [125I]RTI-55; read-out: Binding Affinity (IC50, nM) SERT.
Chain of hSERT (P31645 whole entry): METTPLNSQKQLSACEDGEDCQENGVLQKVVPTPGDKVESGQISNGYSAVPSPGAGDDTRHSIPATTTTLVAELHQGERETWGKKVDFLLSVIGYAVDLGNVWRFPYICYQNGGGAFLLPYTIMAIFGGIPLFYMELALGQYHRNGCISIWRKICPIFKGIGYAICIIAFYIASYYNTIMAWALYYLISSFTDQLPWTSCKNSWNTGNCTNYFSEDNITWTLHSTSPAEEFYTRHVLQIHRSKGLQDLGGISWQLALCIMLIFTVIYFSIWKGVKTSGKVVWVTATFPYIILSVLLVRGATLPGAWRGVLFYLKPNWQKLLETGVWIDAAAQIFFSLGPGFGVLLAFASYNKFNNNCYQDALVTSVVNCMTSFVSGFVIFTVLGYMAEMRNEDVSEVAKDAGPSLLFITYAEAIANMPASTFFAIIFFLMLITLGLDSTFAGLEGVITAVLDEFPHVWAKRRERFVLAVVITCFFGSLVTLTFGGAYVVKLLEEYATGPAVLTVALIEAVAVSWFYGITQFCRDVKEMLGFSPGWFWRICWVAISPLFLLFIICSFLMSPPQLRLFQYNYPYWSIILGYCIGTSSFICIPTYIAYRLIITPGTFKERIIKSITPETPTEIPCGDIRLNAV
Experiment [2] concerns the target hDAT (Homo sapiens (Human), UniProt Q01959). As to the kind of experiment: DAT radioligand binding assay ([125I]RTI-55, HEK-293 membranes). Conditions: recombinant HEK-293 membranes, [125I]RTI-55; read-out: Binding Affinity (IC50, nM) DAT.
Experiment [3] concerns the target hNET (Homo sapiens (Human), UniProt P23975). As to the kind of experiment: NET radioligand binding assay ([3H]nisoxetine, HEK-293 membranes). Conditions: recombinant HEK-293 membranes, [3H]nisoxetine; read-out: Binding Affinity (IC50, nM) NET.
For experiment [4], the system named is SERT. As to the kind of experiment: Ex vivo transporter occupancy assay, SERT ([3H]citalopram, brain tissue). It is filed as in vivo. The conditions noted are these: dosed orally, time until sacrifice 3 h. The text has this: (§1) The general procedure for brain tissue collection and transporter occupancy assessment is briefly described as follows. Mice were sacrificed by asphyxiation in CO2, rats by decapitation and dogs by IV injection of euthanasia solution. For mice and rats, after the brains were removed from the skull, the forebrain tissue (removal of the brainstem and cerebellum) was used for SERT, NET, and DAT occupancy assessment. In dogs, the striatum was dissected for DAT occupancy and the remaining forebrain tissue (without the striatum, brainstem, and cerebellum) was used for SERT and NET occupancy assessment. The brain tissues were frozen in chilled isopentane and stored at −80° C. until homogenization.
(§2) The brain tissues were thawed and then homogenized using a polytron homogenizer (Kinematica). Sample aliquots were frozen immediately and stored at −80° C. Protein content was measured for each sample using a Coomassie protein assay kit (Pierce).
On the day of ex vivo binding for occupancy assessment, frozen sample aliquots were thawed and needle homogenized, and 100 μg of the tissue was incubated for SERT, NET, and DAT binding under assay conditions summarized in Table 1. After incubation, the reactions were terminated by the addition of ice-cold assay buffer and rapid filtration through a Brandel Cell Harvester using FPXLR-196 filters. The filters were washed twice with ice-cold incubation buffer, punched into a clear plate prior to the addition of 200 ul scintillation fluid per well. Radioligand was measured using a Wallac Microbeta liquid scintillation counter.
(§3) The specific binding was calculated by subtracting the value of the non-specific binding from that of the total binding in each sample. The percent occupancy was calculated as (1−specific binding in drug treated/specific binding in vehicle treated)×100%. […] Nonlinear regression was performed using GraphPad Prism version 3.00 (GraphPad Software, San Diego, Calif.).

The test system of experiment [5] is DAT. As to the kind of experiment: Ex vivo transporter occupancy assay, DAT ([125I]RTI-55, brain tissue). Format: in vivo. Conditions: dosed orally, time until sacrifice 3 h.
Excerpt: as §1, §2
(§4) On the day of ex vivo binding for occupancy assessment, frozen sample aliquots were thawed and needle homogenized, and 100 μg of the tissue was incubated for SERT, NET, and DAT binding under assay conditions summarized in Table 1. […] The filters were washed twice with ice-cold incubation buffer, punched into a clear plate prior to the addition of 200 ul scintillation fluid per well. Radioligand was measured using a Wallac Microbeta liquid scintillation counter.
as §3

The subject of experiment [6] is NET. As to the kind of experiment: Ex vivo transporter occupancy assay, NET ([3H]nisoxetine, brain tissue). Format: in vivo. Conditions: dosed orally, time until sacrifice 3 h.
Excerpt: as §1, §2, §4, §3

By IC50 is commonly meant the concentration that gives 50% inhibition.

Chain of hNET (P23975 whole entry): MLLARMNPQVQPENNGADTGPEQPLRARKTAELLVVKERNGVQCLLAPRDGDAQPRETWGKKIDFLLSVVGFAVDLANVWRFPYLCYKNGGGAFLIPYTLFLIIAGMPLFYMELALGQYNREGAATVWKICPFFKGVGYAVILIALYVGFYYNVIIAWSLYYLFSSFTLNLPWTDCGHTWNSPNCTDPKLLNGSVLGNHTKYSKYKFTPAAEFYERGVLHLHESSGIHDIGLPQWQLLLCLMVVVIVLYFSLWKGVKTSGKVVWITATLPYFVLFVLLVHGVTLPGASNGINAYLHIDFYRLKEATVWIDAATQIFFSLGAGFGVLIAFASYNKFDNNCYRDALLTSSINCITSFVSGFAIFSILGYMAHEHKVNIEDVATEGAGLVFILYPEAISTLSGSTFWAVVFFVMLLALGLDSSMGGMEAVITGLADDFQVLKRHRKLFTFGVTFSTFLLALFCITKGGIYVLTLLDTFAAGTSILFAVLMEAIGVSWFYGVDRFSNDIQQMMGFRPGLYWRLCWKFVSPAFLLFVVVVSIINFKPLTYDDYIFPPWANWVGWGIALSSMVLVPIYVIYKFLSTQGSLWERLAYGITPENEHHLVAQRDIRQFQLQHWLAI
Chain of hDAT (Q01959 whole entry): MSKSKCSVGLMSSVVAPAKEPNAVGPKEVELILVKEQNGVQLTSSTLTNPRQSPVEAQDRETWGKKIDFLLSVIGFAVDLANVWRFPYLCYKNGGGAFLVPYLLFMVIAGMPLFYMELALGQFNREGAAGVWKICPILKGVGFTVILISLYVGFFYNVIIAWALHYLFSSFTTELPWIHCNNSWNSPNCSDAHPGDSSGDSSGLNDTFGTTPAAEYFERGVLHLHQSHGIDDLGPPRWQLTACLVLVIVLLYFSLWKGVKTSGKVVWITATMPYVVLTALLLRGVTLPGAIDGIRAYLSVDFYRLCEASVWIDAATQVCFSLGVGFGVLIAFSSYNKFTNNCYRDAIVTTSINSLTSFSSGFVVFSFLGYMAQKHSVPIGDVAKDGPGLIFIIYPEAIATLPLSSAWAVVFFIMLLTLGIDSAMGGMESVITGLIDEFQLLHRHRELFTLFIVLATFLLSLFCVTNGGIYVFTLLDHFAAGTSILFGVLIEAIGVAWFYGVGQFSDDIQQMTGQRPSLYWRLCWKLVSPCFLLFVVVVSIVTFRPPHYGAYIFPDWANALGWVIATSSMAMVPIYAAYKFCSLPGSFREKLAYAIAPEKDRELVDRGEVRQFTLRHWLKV

On to `Clc1ccc(C23CCN(CC2)Cc2cc(-c4cnccn4)ccc23)cc1` [Example 17, 5-(4-chlorophenyl)-2,5-ethano-8-(pyrazin-2-yl)-2,3,4,5-tetrahydro-1H-benzo[c]azepine], for which the IC50 in experiment [1] was determined as 5.3 nM; in experiment [2], 83.5 nM; in experiment [3], 2300 nM. For the same molecule, the “% Occupancy SERT” value in experiment [4] (1 mg/kg) stood at 77%. Moreover, the “% Occupancy DAT” value in experiment [5] (1 mg/kg) is on record as 0%. Also, the “% Occupancy NET” value in experiment [6] (1 mg/kg) came out at 12%.
Turning to `CS(=O)(=O)c1ccc(-c2ccc3c(c2)CN2CCC3(c3ccc(Cl)cc3)CC2)cc1` [Example 26, 5-(4-chlorophenyl)-2,5-ethano-8-(4-(methylsulfonyl)phenyl)-2,3,4,5-tetrahydro-1H-benzo[c]azepine], the half-maximal inhibitory concentration (IC50) worked out at 7.2 nM in experiment [1], 63 nM in experiment [2] and 432 nM in experiment [3]. Moreover, the “% Occupancy SERT” value in experiment [4] (1 mg/kg) was determined as 14%. Also, the “% Occupancy DAT” value in experiment [5] (1 mg/kg) came out at 3%. For the same molecule, in experiment [6] (1 mg/kg), the “% Occupancy NET” value is recorded as 0%.
With `O=C1NC2C=CC(c3ccc4c(c3)CN3CCC4(c4ccc(Cl)cc4)CC3)=CC2O1` (centres unmarked) [Example 22, 6-(5-(4-chlorophenyl)-2,5-ethano-2,3,4,5-tetrahydro-1H-benzo[c]azepin-8-yl)-3,3a-dihydrobenzo[d]oxazol-2(7aH)-one], the IC50 in experiment [1] was determined as 3.4 nM; in experiment [2], 58.6 nM; in experiment [3], 806 nM. In experiment [4] (3 mg/kg), the “% Occupancy SERT” value was found to be 60%. Moreover, the “% Occupancy DAT” value in experiment [5] (3 mg/kg) is 5%. Besides, in experiment [6] (3 mg/kg), the “% Occupancy NET” value amounted to 0%.
On to `Fc1cc(C23CCN(CC2)Cc2cc(Oc4ccc(C(F)(F)F)nn4)ccc23)ccc1Cl` [Example 48, 5-(4-chloro-3-fluorophenyl)-2,5-ethano-8-(6-(trifluoromethyl)pyridazin-3-yloxy)-2,3,4,5-tetrahydro-1H-benzo[c]azepine], for which the IC50 is 7.2 nM in experiment [1], 10.1 nM in experiment [2] and 134 nM in experiment [3]. The “% Occupancy SERT” value in experiment [4] (1 mg/kg) was found to be 21%. Besides, in experiment [5] (1 mg/kg), the “% Occupancy DAT” value is reported as 12%. For the same molecule, the “% Occupancy NET” value in experiment [6] (1 mg/kg) is on record as 0%.
Regarding `Nc1cnc(-c2ccc3c(c2)CN2CCC3(c3ccc(Cl)cc3)CC2)cn1` [Example 18, 5-(5-(4-chlorophenyl)-2,5-ethano-2,3,4,5-tetrahydro-1H-benzo[c]azepin-8-yl)pyrazin-2-amine], the half-maximal inhibitory concentration (IC50) turned out to be 3.5 nM in experiment [1], 47.6 nM in experiment [2] and 925 nM in experiment [3]. Further, the “% Occupancy SERT” value in experiment [4] (3 mg/kg) is listed as 89%. For the same molecule, the “% Occupancy DAT” value in experiment [5] (3 mg/kg) is 15%. Moreover, the “% Occupancy NET” value in experiment [6] (3 mg/kg) came to 6%.
With `FC(F)Oc1ccc(-c2ccc3c(c2)CN2CCC3(c3ccc(Cl)c(Cl)c3)CC2)nn1` [Example 39, 5-(3,4-dichlorophenyl)-8-(6-(difluoromethoxy)pyridazin-3-yl)-2,5-ethano-2,3,4,5-tetrahydro-1H-benzo[c]azepine], the IC50 was determined as 3.8 nM in experiment [1], 26.1 nM in experiment [2] and 53.5 nM in experiment [3]. Moreover, the “% Occupancy SERT” value in experiment [4] (3 mg/kg) is 59%. Moreover, in experiment [6] (3 mg/kg), the “% Occupancy NET” value was determined as 41%.
`Nc1cnc(-c2ccc3c(c2)CN2CCC3(c3ccc(Cl)c(Cl)c3)CC2)cn1` [Example 42, 5-(5-(3,4-dichlorophenyl)-2,5-ethano-2,3,4,5-tetrahydro-1H-benzo[c]azepin-8-yl)pyrazin-2-amine]: the half-maximal inhibitory concentration (IC50) in experiment [1] is 5.9 nM; in experiment [2], 9.2 nM; in experiment [3], 155 nM. Besides, the “% Occupancy SERT” value in experiment [4] (3 mg/kg) is 82%. The “% Occupancy DAT” value in experiment [5] (3 mg/kg) came to 54%. Besides, the “% Occupancy NET” value in experiment [6] (3 mg/kg) came out at 39%.
Regarding `Fc1ccc(C23CCN(CC2)Cc2cc(Oc4ccc(C(F)(F)F)nn4)ccc23)cc1Cl` [Example 47, 5-(3-chloro-4-fluorophenyl)-2,5-ethano-8-(6-(trifluoromethyl)pyridazin-3-yloxy)-2,3,4,5-tetrahydro-1H-benzo[c]azepine], the IC50 in experiment [1] is 6.4 nM; in experiment [2], 9 nM; in experiment [3], 112 nM. The “% Occupancy SERT” value in experiment [4] (1 mg/kg) is 34%. For the same molecule, the “% Occupancy DAT” value in experiment [5] (1 mg/kg) is 17%. In addition, in experiment [6] (1 mg/kg), the “% Occupancy NET” value came to 0%.
As for `FC(F)(F)c1ccc(Oc2ccc3c(c2)CN2CCC3(c3ccc(Cl)c(Cl)c3)CC2)nn1` [Example 45, 5-(3,4-dichlorophenyl)-2,5-ethano-8-(6-(trifluoromethyl)pyridazin-3-yloxy)-2,3,4,5-tetrahydro-1H-benzo[c]azepine], the IC50 in experiment [1] stood at 4.8 nM; in experiment [2] it was 0.7 nM; in experiment [3], 35.1 nM. The “% Occupancy SERT” value in experiment [4] (1 mg/kg) is 46%. The “% Occupancy DAT” value in experiment [5] (1 mg/kg) is reported as 17%. The “% Occupancy NET” value in experiment [6] (1 mg/kg) turned out to be 0%.
On to `Oc1ccc(-c2ccc3c(c2)CN2CCC3(c3ccc(Cl)cc3)C2)nn1` (single isomer, unassigned) [7(−), 6-(5-(4-chlorophenyl)-2,5-methano-2,3,4,5-tetrahydro-1H-benzo[c]azepin-8-yl)pyridazin-3-ol], for which the IC50 was 6.4 nM in experiment [1], 16.6 nM in experiment [2] and 103 nM in experiment [3]. In addition, in experiment [4] (1 mg/kg), the “% Occupancy SERT” value was found to be 70%. Further, the “% Occupancy DAT” value in experiment [5] (1 mg/kg) is reported as 1%. Also, the “% Occupancy NET” value in experiment [6] (1 mg/kg) is 46%.
With `FC(F)Oc1ccc(-c2ccc3c(c2)CN2CCC3(c3ccc(Cl)cc3)C2)nn1` (single isomer, unassigned) [6(−), 5-(4-chlorophenyl)-8(6-(difluoromethoxy)pyridazin-3-yl)-2,5-methano-2,3,4,5-tetrahydro-1H-benzo[c]azepine], the 50% inhibitory concentration (IC50) in experiment [1] stood at 5.9 nM; in experiment [2], 87.2 nM; in experiment [3] it was 275 nM. Further, the “% Occupancy SERT” value in experiment [4] (3 mg/kg) was found to be 59%. Also, the “% Occupancy DAT” value in experiment [5] (3 mg/kg) is reported as 12%. In addition, in experiment [6] (3 mg/kg), the “% Occupancy NET” value came out at 0%.
In the case of `FC(F)Oc1ccc(-c2ccc3c(c2)CN2CCC3(c3ccc(Cl)cc3)CC2)nn1` [Example 14, 5-(4-chlorophenyl)-8-(6-(difluoromethoxy)pyridazin-3-yl)-2,5-ethano-2,3,4,5-tetrahydro-1H-2-benzo[c]azepine], the 50% inhibitory concentration (IC50) in experiment [1] amounted to 1.1 nM; in experiment [2], 57.3 nM; in experiment [3], 264 nM. Moreover, the “% Occupancy SERT” value in experiment [4] (3 mg/kg) amounted to 79%. Moreover, the “% Occupancy DAT” value in experiment [5] (3 mg/kg) was found to be 12%. Moreover, the “% Occupancy NET” value in experiment [6] (3 mg/kg) is 0%.
In the case of `FC(F)(F)c1ccc(Oc2ccc3c(c2)CN2CCC3(c3ccc(Cl)cc3)CC2)nn1` [Example 32, 5-(4-chlorophenyl)-2,5-ethano-8-(6-(trifluoromethyl)pyridazin-3-yloxy)-2,3,4,5-tetrahydro-1H-benzo[c]azepine], the concentration for half-maximal inhibition (IC50) in experiment [1] amounted to 4.3 nM; in experiment [2] it was 36.5 nM; in experiment [3], 124 nM. Also, in experiment [4] (3 mg/kg), the “% Occupancy SERT” value came out at 74%. Also, in experiment [5] (3 mg/kg), the “% Occupancy DAT” value was 42%. In experiment [6] (3 mg/kg), the “% Occupancy NET” value is given as 0%.
